Results on 6 compounds are retold here after patent US5708063A, “Photochromic compound” (Tokuyama Corporation, priority 1993, dated 1998).

Type in all cases: physicochemical
Data set [1] can be described thus: Photochromic PMMA cast film: initial coloration density, maximum absorption wavelength and fatigue life in xenon fadeometer (Example 9).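 As to Initial color density: initial color density is an absorbance value so the % unit is wrong.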 As to conditions: PMMA cast film 0.1 mm. The source says:
The thickness of the cast film was adjusted to 0.1 mm.
(§1) T1/2 is defined as the time required for the color density to decrease to half of its initial value when the film is exposed to the fadeometer.

The nature of data set [2]: Durability of poly(allyl diglycol carbonate) lens impregnated with the compound in silicone oil, as in Example 9 (Example 10). The arrangement: Initial color density: unit not given here. As to conditions: silicone oil impregnation. As for the experimental part:
as §1
The solution was impregnated in the surface of a lens composed of poly(allyl diglycol carbonate) at 200° C. for 1 hour. The concentration of the solution was adjusted to 1.0×10^-4 mole/g.

Data set [3] can be described thus: Fatigue life of fulgide/fulgimide and chromene compound in polymerized methacrylate plate (Example 15). As to conditions: for T1/2 of fulgide or fulgimide compound: 0.05 part. As for the experimental part:
(§2) […] The mixed solution was injected into a mold which was made of a glass plate and a gasket formed of an ethylene-vinyl acetate copolymer, and was heated to a temperature of 35° to 90° C. in an air oven over a period of 20 hours for polymerization. After the polymerization was over, the polymer was withdrawn from the glass plate of the mold.
(§3) The resulting polymerized plate was irradiated with sunlight for 10 minutes. On this occasion, a color tone of said plate was visually observed. In this polymerized plate, the fulgide or fulgimide compound and the chromene compound were measured for fatigue life in the same manner as in Example 9. Further, a color tone of the polymerized plate was visually observed in T1/2 (hrs.) of the fulgide or fulgimide compound.

Data set [4] can be described thus: Visual color tone of polymerized plate under sunlight (Example 15). As to conditions: 0.05 part. As for the experimental part: as §2, §3
A short description of data set [5]: Fatigue life of fulgide/fulgimide and chromene compound in polymerized plate with ultraviolet light stabilizer (Example 16).
Setting [6] is: with chromenes 1/2 (0.015/0.015 part).

As to `CC1CC1C1=C2C(=O)N(CCCCCc3cccc4ccccc34)C(=O)C2C2(c3sc4c(c31)CCCC4)C1CC3CC(C1)CC2C3` (stereo not drawn) [(48)], the λmax in data set [1] (xenon light) is given as 588 nm; in data set [2] it was 590 nm. For the same compound, the Initial color density was 0.75% in data set [1] (xenon light, no stabilizer) and 0.67 in data set [2] (1.0×10^-4 mole/g). Further, the T1/2 is 2.58 days in data set [1] (time for color density to fall to half of initial value, xenon fadeometer, no stabilizer) and 2.71 days in data set [2] (xenon fadeometer). Further, the “T1/2 of fulgide or fulgimide compound” value in data set [3] (with chromene 1 (0.04 part)) was determined as 6.42 days; in data set [3] (setting [6]) it was 6.42 days; in data set [5] (0.05 part, chromene 1 (0.04), Spinuvex A-36 (0.6)), 17.9 days; in data set [5] (0.05 part, chromene 2 (0.05), Cyasorb UV 1084 (0.6)), 17.5 days; in data set [5] (0.05 part, chromene 3 (0.1), Tinuvin 765 (0.7)), 18.8 days; in data set [5] (0.05 part, chromene 4 (0.1), UV Check AM101 (0.4)) it was 18.3 days. Also, the “T1/2 of fulgide or fulgimide compound” value in data set [5] (0.05 part, chromene 5 (0.05), Tinuvin 622 (0.7)) is 18.8 days. In addition, the “Color tone in T0” value in data set [4] (with chromene 1 (0.04 part)) and in data set [4] (setting [6]) was “gray” in each case. Moreover, the “Color tone in T1/2” value in data set [4] (with chromene 1 (0.04 part)) and in data set [4] (setting [6]) was “gray” throughout.

“7'-methoxyspiro(bicyclo[3.3.1]nonane-9,2'-(2H)benzo(f)-chromene) [Chromene compound 2]”: the “T1/2 of chromene compound” value in data set [3] (0.03 part, with fulgide/fulgimide 2 (0.05 part)) turned out to be 8.75 days; in data set [3] (0.03 part, with fulgide/fulgimide 21 (0.05 part)) it was 7.08 days; in data set [3] (0.03 part, with fulgide/fulgimide 36 (0.05 part)) it was 7.92 days; in data set [3] (0.03 part, with fulgide/fulgimide 45 (0.05 part)), 7.29 days; in data set [3] (0.03 part, with fulgide/fulgimide 54 (0.05 part)), 6.88 days; in data set [3] (0.04 part chromene 2, with fulgide/fulgimide 2/48 (0.025/0.025 part)), 7.92 days. The “T1/2 of chromene compound” value is 14.2 days in data set [5] (0.04 part, fulgimide 2 (0.05), Tiniuvin 765 (0.1)); 14.6 days in data set [5] (0.04 part, fulgimide 2 (0.05), Tinuvin 765 (0.2)); 16.7 days in data set [5] (0.04 part, fulgimide 2 (0.05), Tinuvin 765 (0.5)); 20 days in data set [5] (0.04 part, fulgimide 2 (0.05), Tinuvin 765 (1.0)); 20.8 days in data set [5] (0.04 part, fulgimide 2 (0.05), Tinuvin 765 (2.0)); 21.7 days in data set [5] (0.04 part, fulgimide 2 (0.05), Tinuvin 765 (10.0)). Moreover, the “T1/2 of chromene compound” value in data set [5] (0.04 part, fulgimide 2 (0.05), UV Chek AM105 (0.7)) was determined as 18.3 days; in data set [5] (0.05 part, fulgimide 2 (0.05), LA-63 (0.5)) it was 20 days; in data set [5] (0.05 part, fulgimide 48 (0.05), Cyasorb UV 1084 (0.6)), 17.9 days.

Turning to `CC1=Cc2c(ccc3ccccc23)OC12CC1CCC2C1` (stereo not drawn) [Chromene compound 4, 3'-methylspiro[norbornane-2,2'-[2H]benzo-[f]chromene]], the “T1/2 of chromene compound” value in data set [3] (0.04 part, with fulgide/fulgimide 24 (0.05 part)) worked out at 6.33 days; in data set [3] (0.08 part, with fulgide/fulgimide 12 (0.05 part)) it was 7.5 days; in data set [5] (0.01 part, fulgimide 2 (0.05), LS-2626 (0.4)), 20 days; in data set [5] (0.1 part, fulgimide 48 (0.05), UV Check AM101 (0.4)), 17.9 days.

Regarding `C1=CC2(CC3CCC2C3)Oc2c1ccc1ccccc21` (stereo not drawn) [Chromene compound 1, Spiro(norbornane-2,2'-(2H)benzo(h)-chromene)], the “T1/2 of chromene compound” value in data set [3] (0.03 part, with fulgide/fulgimide 8 (0.05 part)) stood at 7.08 days; in data set [3] (0.03 part, with fulgide/fulgimide 30 (0.05 part)) it was 7.08 days; in data set [3] (0.04 part chromene 1, with fulgide/fulgimide 2/48 (0.025/0.025 part)), 7.92 days; in data set [3] (0.04 part, with fulgide/fulgimide 48 (0.05 part)) it was 6.17 days; in data set [5] (0.03 part, fulgimide 2 (0.05), Irgastab 2002 (0.5)), 20 days; in data set [5] (0.04 part, fulgimide 48 (0.05), Spinuvex A-36 (0.6)), 17.9 days.

Regarding `CC1=CC2(Oc3ccc4ccccc4c31)C1CCCC2CCC1` (stereo not drawn) [Chromene compound 3, 4'-methylspiro[bicyclo[3.3.1]nonane-9,2'-[2H]benzo[f]chromene]], the “T1/2 of chromene compound” value in data set [3] (0.08 part, with fulgide/fulgimide 10 (0.05 part)) came to 6.25 days; in data set [3] (0.08 part, with fulgide/fulgimide 44 (0.05 part)) it was 6.67 days; in data set [5] (0.01 part, fulgimide 2 (0.05), Cyasorb 944 (0.5)), 16.7 days; in data set [5] (0.1 part, fulgimide 48 (0.05), Tinuvin 765 (0.7)), 17.5 days.

On to `CCCCCCCCOc1cccc2c3c(ccc12)C=CC(C)(C)O3` [Chromene compound 5, 2,2-dimethyl-7-octoxy[2H]benzo[h]chromene], for which the “T1/2 of chromene compound” value in data set [3] (0.03 part, with fulgide/fulgimide 17 (0.05 part)) is 5 days; in data set [3] (0.04 part, with fulgide/fulgimide 15 (0.05 part)), 8 days; in data set [3] (0.07 part, with fulgide/fulgimide 46 (0.05 part)), 6.46 days; in data set [5] (0.05 part, fulgimide 2 (0.05), Mark LA-87 (0.5)), 18.8 days; in data set [5] (0.05 part, fulgimide 48 (0.05), Tinuvin 622 (0.7)) it was 17.9 days.
